Patent US20210038587A1, “METHODS AND COMPOSITIONS FOR TREATING NON-ERK MAPK PATHWAY INHIBITOR-RESISTANT CANCERS” (BIOMED VALLEY DISCOVERIES, INC., priority 2013, published 2021)

What was measured:
MIAPaCa-2 = test: Reverse Phase Protein Analysis (RPPA); assay type: cell-based; settings: MIAPaca2; % change from DMSO (matched cell line)
[1] = system: A375, MIAPaCa-2, HCT116, Colo205, HT-29, and AN3Ca cells; test: Reverse Phase Protein Analysis (RPPA), all six cell lines; assay type: cell-based; settings: 10 μM, 6 hours
Description: (§1) Control wells were treated with DMSO at 0.1% (v/v) for 6 hours prior to cell lysate generation. Samples were then analyzed using reverse-phase protein microarray technology (Theranostics Health).
(§2) Cell lines with common alterations in BRAF and RAS were assayed: BRAF^V600E mutant lines A375, Colo205, and HT29; KRAS^G12C-mutant cell line MIAPACa-2; KRAS^G13D-mutant cell line HCT116; and AN3Ca with atypical HRAS^F82L mutation. Changes in protein levels are shown as a percentage change from dimethyl sulfoxide (DMSO)-treated parental control (FIG. 32A and Table 23).

AN3Ca = test: Reverse Phase Protein Analysis (RPPA); assay type: cell-based; settings: % change from DMSO (matched cell line)
Description: as §1, §2

HT29 = test: Reverse Phase Protein Analysis (RPPA); assay type: cell-based; settings: % change from DMSO (matched cell line)
Description: as §1, §2

Colo205 = test: Reverse Phase Protein Analysis (RPPA); assay type: cell-based, human; settings: % change from DMSO (matched cell line)

O=C(Nc1ccc2[nH]nc(-c3ccncc3)c2c1)[C@@H]1CCN(CC(=O)N2CCN(c3ccc(-c4ncccn4)cc3)CC2)C1 [SCH772984]
Avg (4ebp1 T70) (MIAPaCa-2): 19.27% | Avg (Akt S473) (MIAPaCa-2): 2.84% | Avg (Akt) (MIAPaCa-2): 13.47% | Avg (Bad S136) (MIAPaCa-2): 8.62% | Avg (Bad S155) (MIAPaCa-2): −1.71% | Avg (Bak) (MIAPaCa-2): −10.88% | Avg (Bax) (MIAPaCa-2): 15.67% | Avg (Bcl 2) (MIAPaCa-2): 4.96% | Avg (Bcl2 S70) (MIAPaCa-2): −4.23% | Avg (Bcl 2 T56) (MIAPaCa-2): −1.98% | Avg (Bim) (MIAPaCa-2): 2.08% | Avg (CREB S133) (MIAPaCa-2): −6.63% | Avg (Caspase 3 CL D175) (MIAPaCa-2): 21.05% | Avg (Caspase 7 Cl D198) (MIAPaCa-2): 8.35% | Avg (Chk1) (MIAPaCa-2): 12.07% | Avg (Chk1 S345) (MIAPaCa-2): 13.39% | Avg (Cyclin D1) (MIAPaCa-2): −39.88% | Avg (ERK 1 2) (MIAPaCa-2): −23.09% | Avg (ERK 1 2 T202 Y204) (MIAPaCa-2): −76.71% | Avg (MAK1 S360) (MIAPaCa-2): 2.74% | Avg (Mcl1) (MIAPaCa-2): −1.88% | Avg (Raptor S792) (MIAPaCa-2): 4.43% | Avg (Raptor) (MIAPaCa-2): 17.66% | Avg (Rictor) (MIAPaCa-2): −15.15% | Avg (Stat1) (MIAPaCa-2): 7.17% | Avg (Stat3) (MIAPaCa-2): −9.19% | Avg (bad S112) (MIAPaCa-2): −33.07% | Avg (c Fos) (MIAPaCa-2): −8.99% | Avg (c Myc) (MIAPaCa-2): 2.11% | Avg (mTOR S2448) (MIAPaCa-2): −11.48% | Avg (mTOR S2481) (MIAPaCa-2): 2.43% | Avg (mTOR) (MIAPaCa-2): 1.64% | Avg (p70 S6 Kinase) (MIAPaCa-2): −7.51% | Avg (p90 RSK S380) (MIAPaCa-2): −38.58% | Avg(S6 Ribo Prot S235 236) (MIAPaCa-2): −77.57% | Avg(S6 Ribo Prot S240 244) (MIAPaCa-2): −86.61% | Avg(Tuberin TSC2 Y1571) (MIAPaCa-2): 8.86% | Avg(p70 S6 Kinase S371 S394) (MIAPaCa-2): −40.47% | Avg(p70 S6 Kinase T389 T412) (MIAPaCa-2): −50.97% | pERK1/2 (ERK1/2-T202, -Y204) [1]: inhibited pERK1/2 in all cell lines | Avg (4ebp1 T70) (AN3Ca): 61.57% | Avg (Akt S473) (AN3Ca): 66.17% | Avg (Akt) (AN3Ca): −16.35% | Avg (Bad S136) (AN3Ca): 5.26% | Avg (Bad S155) (AN3Ca): 12.92% | Avg (Bak) (AN3Ca): 9.73% | Avg (Bax) (AN3Ca): 0.15% | Avg (Bcl 2) (AN3Ca): −5.14% | Avg (Bcl2 S70) (AN3Ca): −12.42% | Avg (Bcl 2 T56) (AN3Ca): −10.73% | Avg (Bim) (AN3Ca): −14.09% | Avg (CREB S133) (AN3Ca): 3.64% | Avg (Caspase 3 CL D175) (AN3Ca): 1.25% | Avg (Caspase 7 Cl D198) (AN3Ca): −24.17% | Avg (Chk1) (AN3Ca): 1.35% | Avg (Chk1 S345) (AN3Ca): 14.56% | Avg (Cyclin D1) (AN3Ca): −11.33% | Avg (ERK 1 2) (AN3Ca): −9.27% | Avg (ERK 1 2 T202 Y204) (AN3Ca): 19.75% | Avg (MAK1 S360) (AN3Ca): −5.02% | Avg (Mcl1) (AN3Ca): −7.15% | Avg (Raptor S792) (AN3Ca): −4.03% | Avg (Raptor) (AN3Ca): −11.09% | Avg (Rictor) (AN3Ca): −10.89% | Avg (Stat1) (AN3Ca): 5.52% | Avg (Stat3) (AN3Ca): −6.01% | Avg (bad S112) (AN3Ca): −39.14% | Avg (c Fos) (AN3Ca): −9.18% | Avg (c Myc) (AN3Ca): 0.88% | Avg (mTOR S2448) (AN3Ca): −4.84% | Avg (mTOR S2481) (AN3Ca): 11.24% | Avg (mTOR) (AN3Ca): −5.33% | Avg (p70 S6 Kinase) (AN3Ca): −7.71% | Avg (p90 RSK S380) (AN3Ca): −40.26% | Avg(S6 Ribo Prot S235 236) (AN3Ca): −61.99% | Avg(S6 Ribo Prot S240 244) (AN3Ca): −35.88% | Avg(Tuberin TSC2 Y1571) (AN3Ca): 13.44% | Avg(p70 S6 Kinase S371 S394) (AN3Ca): 24.56% | Avg(p70 S6 Kinase T389 T412) (AN3Ca): −16.63% | Avg (4ebp1 T70) (HT29): −40.58% | Avg (Akt S473) (HT29): −22.14% | Avg (Akt) (HT29): −16.93% | Avg (Bad S136) (HT29): 9.67% | Avg (Bad S155) (HT29): −7.98% | Avg (Bak) (HT29): 2.78% | Avg (Bax) (HT29): −20.59% | Avg (Bcl 2) (HT29): −10.01% | Avg (Bcl2 S70) (HT29): −11.45% | Avg (Bcl 2 T56) (HT29): −17.9% | Avg (Bim) (HT29): 0.69% | Avg (CREB S133) (HT29): 9.87% | Avg (Caspase 3 CL D175) (HT29): −7.9% | Avg (Caspase 7 Cl D198) (HT29): 7.02% | Avg (Chk1) (HT29): 14.64% | Avg (Chk1 S345) (HT29): 19.05% | Avg (Cyclin D1) (HT29): −36.66% | Avg (ERK 1 2) (HT29): −37% | Avg (ERK 1 2 T202 Y204) (HT29): −74.84% | Avg (MAK1 S360) (HT29): 1.25% | Avg (Mcl1) (HT29): 14.05% | Avg (Raptor S792) (HT29): −6.38% | Avg (Raptor) (HT29): −12.18% | Avg (Rictor) (HT29): −13.03% | Avg (Stat1) (HT29): 5.79% | Avg (Stat3) (HT29): −2.15% | Avg (bad S112) (HT29): −33.9% | Avg (c Fos) (HT29): −9.26% | Avg (c Myc) (HT29): 13.55% | Avg (mTOR S2448) (HT29): −22.65% | Avg (mTOR S2481) (HT29): 13.93% | Avg (mTOR) (HT29): 9.31% | Avg (p70 S6 Kinase) (HT29): −2.36% | Avg (p90 RSK S380) (HT29): −53.88% | Avg(S6 Ribo Prot S235 236) (HT29): −44.9% | Avg(S6 Ribo Prot S240 244) (HT29): −25.73% | Avg(Tuberin TSC2 Y1571) (HT29): 13.25% | Avg(p70 S6 Kinase S371 S394) (HT29): −20.52% | Avg(p70 S6 Kinase T389 T412) (HT29): −9.55% | Avg (4ebp1 T70) (Colo205): −27.51% | Avg (Akt S473) (Colo205): −1.74% | Avg (Akt) (Colo205): −10.31% | Avg (Bad S136) (Colo205): 1.88% | Avg (Bad S155) (Colo205): −10.96% | Avg (Bak) (Colo205): 4.59% | Avg (Bax) (Colo205): −6.44% | Avg (Bcl 2) (Colo205): −14.56% | Avg (Bcl2 S70) (Colo205): −18.52% | Avg (Bcl 2 T56) (Colo205): −6.73% | Avg (Bim) (Colo205): 29.22% | Avg (CREB S133) (Colo205): −14.56% | Avg (Caspase 3 CL D175) (Colo205): 14.08% | Avg (Caspase 7 Cl D198) (Colo205): 12.36% | Avg (Chk1) (Colo205): 7.49% | Avg (Chk1 S345) (Colo205): 1% | Avg (Cyclin D1) (Colo205): −36.7% | Avg (ERK 1 2) (Colo205): −31.87% | Avg (ERK 1 2 T202 Y204) (Colo205): −91.43% | Avg (MAK1 S360) (Colo205): 7.54% | Avg (Mcl1) (Colo205): −0.14% | Avg (Raptor S792) (Colo205): −4.17% | Avg (Raptor) (Colo205): −2.2% | Avg (Rictor) (Colo205): −19.07% | Avg (Stat1) (Colo205): −4.31% | Avg (Stat3) (Colo205): −6.1% | Avg (bad S112) (Colo205): −29.4% | Avg (c Fos) (Colo205): −15.17% | Avg (c Myc) (Colo205): −0.64% | Avg (mTOR S2448) (Colo205): −9.44% | Avg (mTOR S2481) (Colo205): −6.68% | Avg (mTOR) (Colo205): −5.62% | Avg (p70 S6 Kinase) (Colo205): −2.85% | Avg (p90 RSK S380) (Colo205): −62.31% | Avg(S6 Ribo Prot S235 236) (Colo205): −94.67% | Avg(S6 Ribo Prot S240 244) (Colo205): −95.09% | Avg(Tuberin TSC2 Y1571) (Colo205): −1.38% | Avg(p70 S6 Kinase S371 S394) (Colo205): −14.59% | Avg(p70 S6 Kinase T389 T412) (Colo205): −30.4%
